Earlier results in US20020048798A1, “Novel antioxidants” (priority 2000, published 2002).

Settings: factor relative to the racemate of α-lipoic acid

O=C(O)CCCC[C@@H]1CCSS1 [R-α-lipoic acid]
anti-inflammatory activity, stronger by a factor than that of the racemate: 10
